The nature of data set [1]: Solubility of gelatin capsule shells filled with PEG 4000 and free radical scavenger after storage (Example 3). Conditions: 5 parts scavenger + 95 parts PEG 4000 packed into capsule, 60°C for a week, content removed; 2nd solution of JP12 (37 °C). The format is physicochemical. As for the experimental part: After storage in a tightly closed glass bottle at 60°C for a week, the capsule content was removed and solubility of each capsule shell was examined in the same manner as in Example 1.

For data set [2] the following is noted: capsule shells stored without contact over 95 parts PEG 6000 + 5 parts scavenger, 60°C for a week, 2nd solution of JP12 (37 °C), observed after 5 to 6 minutes.

“Also recorded” adds a separate entry of the source. Where two headings read alike, the source gives them in different places.

As for `O=P(=O)O` [metaphosphoric acid], in data set [1], the Solubility result is “soluble rapidly”. With polyphosphoric acid, the Solubility result in data set [1] is listed as “soluble rapidly”. For the compound `Cc1c(C)c2c(c(C)c1O)CC[C@@](C)(CCC[C@H](C)CCC[C@H](C)CCCC(C)C)O2` [d-α -tocopherol], the results for the Solubility entry in data set [1], in data set [2] and in data set [2] (listed as tocopherol) were “soluble rapidly”, “soluble rapidly” and “completely prevented the decrease of the solubility”, respectively. For the compound `Cc1cc2nc3c(=O)[nH]c(=O)nc-3n(C[C@H](O)[C@H](O)[C@H](O)CO)c2cc1C` [riboflavin], the Solubility entry in data set [2] is “completely prevented the decrease of the solubility; also recorded: soluble rapidly”.

For the compound `N[C@@H](CCC(=O)N[C@@H](CS)C(=O)NCC(=O)O)C(=O)O` [glutathione], the Solubility result in data set [1] was “soluble rapidly”.

Values taken from patent EP0695544B1, “Hard gelatin capsules resistant to denaturation and the production thereof” (SHIONOGI & CO., LTD., priority 1994, dated 1996).
